Results published in patent US20080176744A1 (priority 2005, published 2008).

Test system: Pyricularia oryzae
Assay type: cell-based
Settings: 125 ppm, microtiter plate, absorption at 405 nm on the seventh day after inoculation

Q: `CCCCCCCCc1c(N)nc(SC)nc1CC` [I-3, 6-ethyl-2-methylsulfanyl-5-octylpyrimidin-4-ylamine] was tested. Which “growth (relative growth of the pathogen)” value did it give?
A: The value was “inhibited completely”.
